In assay [1] the test system is MsiOR1/Orco. The conditions noted are these: ref 48; * estimated visually from graph; cited from earlier work.
The test system of assay [2] is OscaOR1/Orco. The conditions noted are these: ref 47; * estimated visually from graph; cited from earlier work.
Assay [3] deals with T1, Or71a/Orco (Drosophila melanogaster, UniProt Q9VUK5).
T1 construct: his-tag; made in house; host or cells: baculovirus-infected Sf9 cells
T1 sequence (Q9VUK5 1-378): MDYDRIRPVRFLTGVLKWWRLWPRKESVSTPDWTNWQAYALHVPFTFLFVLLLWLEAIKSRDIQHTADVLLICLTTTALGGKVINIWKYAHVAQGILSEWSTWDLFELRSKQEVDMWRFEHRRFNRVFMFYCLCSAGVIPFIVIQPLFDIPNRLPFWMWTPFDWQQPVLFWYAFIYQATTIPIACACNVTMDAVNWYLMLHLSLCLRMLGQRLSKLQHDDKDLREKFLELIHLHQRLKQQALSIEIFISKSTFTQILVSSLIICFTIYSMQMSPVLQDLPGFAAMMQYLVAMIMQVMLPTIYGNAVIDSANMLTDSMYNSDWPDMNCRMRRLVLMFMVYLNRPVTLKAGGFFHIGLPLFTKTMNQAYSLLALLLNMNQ
T1 sequence (Q9VNB5 1-486 partner): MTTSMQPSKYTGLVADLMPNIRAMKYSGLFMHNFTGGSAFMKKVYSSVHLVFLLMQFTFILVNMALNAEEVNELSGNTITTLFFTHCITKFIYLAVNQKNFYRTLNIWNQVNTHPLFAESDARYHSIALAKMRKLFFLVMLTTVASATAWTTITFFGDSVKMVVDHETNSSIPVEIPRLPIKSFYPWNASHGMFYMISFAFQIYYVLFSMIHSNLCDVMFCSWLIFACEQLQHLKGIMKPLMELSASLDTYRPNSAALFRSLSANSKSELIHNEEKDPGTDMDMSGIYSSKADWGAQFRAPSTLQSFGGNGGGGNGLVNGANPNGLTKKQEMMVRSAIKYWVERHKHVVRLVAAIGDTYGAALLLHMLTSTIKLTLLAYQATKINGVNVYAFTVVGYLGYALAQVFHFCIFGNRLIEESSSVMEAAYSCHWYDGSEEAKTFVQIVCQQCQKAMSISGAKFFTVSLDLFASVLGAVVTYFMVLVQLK
Description: Droplet interface bilayer ion channel recording, Or71a/Orco. The format is biochemical. The conditions noted are these: DIB, 10 μM ligand, holding potential 0 mV and −100 mV. How it is done:
Bilayers were formed between two droplets formed within a PMMA chamber filled with 1 mg/ml DPhPC in undecane and AR20 silicone oil (1:1 ratio). The first step in this process was to deposit a 50 nl droplet onto the stationary silver electrode positioned at the base of the well; this droplet consisted of an aqueous solution containing 300 mM NaCl, 10 mM HEPES (pH 7.4), containing the odorant receptor proteins in proteoliposomes (at a 1:20 dilution from the proteoliposome preparation), […] The second droplet was mounted onto a second silver electrode which was held in the oil and lipid mixture using a YOU-3 manipulator (Narishige, Japan). […] Once the droplets were in contact a bilayer formed spontaneously within 1 minute (as determined by visual assessment and an increase in the bilayer capacitance as measured with a capacitance voltage protocol using the Pico2 amplifier). Insertion of an active channel was determined by a change in current while clamping the voltage at 50 mV. […]
Currents were recorded with a Pico2 or an eONE-HS amplifier (Tecella, USA and Elements, Italy, respectively) with built-in digitizers, operating in gap-free acquisition mode at a sampling frequency of 20 kHz, and using a 0.8 or 1.5 kHz low pass filter. […]
Data were analysed using ANA (Dr Pusch, Genoa), EDR (Elements, Italy) and WinWCP (Dr Dempster, University of Strathclyde). […]

Assay [4] has as its target T2, DOr85b/Orco (Drosophila melanogaster, UniProt Q9VHQ6).
T2 construct: host or cells: Xenopus oocytes
T2 sequence (Q9VHQ6 1-389): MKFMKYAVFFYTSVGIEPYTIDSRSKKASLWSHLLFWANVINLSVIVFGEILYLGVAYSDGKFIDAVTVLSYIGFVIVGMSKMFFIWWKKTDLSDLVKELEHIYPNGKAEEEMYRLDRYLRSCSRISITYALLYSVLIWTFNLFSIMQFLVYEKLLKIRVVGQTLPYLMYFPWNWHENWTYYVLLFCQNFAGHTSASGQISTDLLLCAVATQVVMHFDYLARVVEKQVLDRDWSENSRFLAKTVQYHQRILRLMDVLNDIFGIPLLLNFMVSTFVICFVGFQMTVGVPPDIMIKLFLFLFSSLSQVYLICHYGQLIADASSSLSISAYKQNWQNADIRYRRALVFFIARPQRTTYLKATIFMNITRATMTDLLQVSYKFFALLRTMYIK
T2 sequence (Q9VNB5 1-486 partner): T1 sequence (Q9VNB5 1-486 partner)
The conditions noted are these: cited from earlier work.

A short description of assay [5]: EIS sensor, empty liposomes (specificity control). The conditions noted are these: empty liposomes without receptor. It counts as biochemical. The method, then: PBS solution was prepared by immersing one tablet of PBS in 200 ml of milli-Q water (according to manufacturers instructions) and filtered using 0.2-μm syringe filter. The pH of the prepared buffer solution was measured with a pH meter. OrX liposomes or OrX/Orco liposomes were diluted 100 fold in PBS buffer solution (pH=7.4) and the COOH-activated electrodes were incubated in that buffer solution at room temperature for one hour. Then, the electrodes were washed extensively with PBS buffer solution to wash out any unbound liposomes.
(§1) PBS (pH=7.4) was used as an electrolyte to conduct electrochemical measurements. PBS buffer was degassed for about 30 minutes prior to electrochemical measurements. Odorant solutions of concentration ranging from 1 aM to 1 μM were prepared by sequential dilution in PBS solution containing 1% DMSO. OR immobilized electrodes were incubated in relevant odorant solution for ˜30 minutes each and washed gently with PBS before EIS measurements.
(§2) EIS measurements were done in a 3 electrode cell containing Ag/AgCl (3 M NaCl, 0.209 V vs. SHE) reference electrode, coiled platinum wire as a counter electrode and the gold disk as a working electrode at a fixed voltage of −0.7 using PalmSens potentiostat. Degassed PBS was used as an electrolyte.
EIS measurements were performed on gold electrodes functionalised with OrX liposomes (either Or10a or Or22a), OrX/Orco liposomes, or empty liposomes prior to and after target ligand or control ligand incubation with increasing concentrations (1 aM to 100 μM). Dose response curves were obtained by defining sensor response as −(ΔRp/R^op) versus log[C(Ligand)]. FIG. 4a presents the EIS response in terms of Nyquist plot for the Or10a liposome functionalized sensors when exposed to a solution containing one of the known target ligands of Or10a, methyl salicylate, at various concentrations. […] The dose response curve (FIG. 4b) was obtained by plotting the change in polarization resistance −(ΔRp/R^op) versus log[conc(Ligand)], as the sensor response. […]

In assay [6] the target is T3, Or35a (Drosophila melanogaster, UniProt Q9V3Q2).
T3 construct: his-tag; made in house; host or cells: baculovirus-infected Sf9 cells
T3 sequence (Q9V3Q2 1-409): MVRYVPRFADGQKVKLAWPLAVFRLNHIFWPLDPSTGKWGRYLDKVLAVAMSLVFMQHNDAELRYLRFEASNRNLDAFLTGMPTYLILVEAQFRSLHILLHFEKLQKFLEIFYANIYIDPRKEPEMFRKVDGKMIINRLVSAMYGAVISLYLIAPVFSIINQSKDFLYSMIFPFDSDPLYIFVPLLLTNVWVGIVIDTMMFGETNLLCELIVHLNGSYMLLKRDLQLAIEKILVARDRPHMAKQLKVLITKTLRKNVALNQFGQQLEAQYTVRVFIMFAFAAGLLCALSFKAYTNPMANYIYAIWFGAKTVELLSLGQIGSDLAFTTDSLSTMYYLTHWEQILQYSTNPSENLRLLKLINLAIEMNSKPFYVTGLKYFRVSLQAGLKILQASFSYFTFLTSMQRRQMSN
The assay is described as follows: EIS sensor, Or35a liposomes on gold electrode. The format is biochemical. How it is done: as §1, §2
EIS measurements were performed on gold electrodes functionalised with OrX liposomes (either Or10a or Or22a), OrX/Orco liposomes, or empty liposomes prior to and after target ligand or control ligand incubation with increasing concentrations (1 aM to 100 μM). Dose response curves were obtained by defining sensor response as −(ΔRp/R^op) versus log[C(Ligand)]. FIG. 4a presents the EIS response in terms of Nyquist plot for the Or10a liposome functionalized sensors when exposed to a solution containing one of the known target ligands of Or10a, methyl salicylate, at various concentrations. […] The dose response curve (FIG. 4b) was obtained by plotting the change in polarization resistance −(ΔRp/R^op) versus log[conc(Ligand)], as the sensor response. Here, Rp is the polarization resistance after Or10a liposome-target interaction and R^op is the polarization resistance before Or10a liposome-target interaction.
(§3) Prior to use, 1 mg liposomes (500 μl at 2 mg/ml) were defrosted on ice and then destabilized by incubating with 0.2% CHAPS for 15 min at room temperature. […] All Or35a/Orco integrated liposomes samples were analysed by Western blot before being aliquoted and stored at −80° C. Integration of Or35a/Orco into liposomes was assessed by density gradient ultracentrifugation (DGU) using Accudenz (Accurate Chemical & Scientific Corporation, USA). […]

In assay [7] the target is T4, Or35a/Orco (Drosophila melanogaster, UniProt Q9V3Q2).
T4 construct: his-tag; made in house; host or cells: baculovirus-infected Sf9 cells
T4 sequence (Q9V3Q2 1-409): T3 sequence (Q9V3Q2 1-409)
T4 sequence (Q9VNB5 1-486 partner): T1 sequence (Q9VNB5 1-486 partner)
Description: EIS sensor, Or35a/Orco liposomes on gold electrode. The format is biochemical. How it is done:
as §1
EIS measurements were done in a 3 electrode cell containing Ag/AgCl (3 M NaCl, 0.209 V vs. SHE) reference electrode, coiled platinum wire as a counter electrode and the gold disk as a working electrode at a fixed voltage of −0.7 using PalmSens potentiostat. Degassed PBS was used as an electrolyte. […]
as §3

Assay [8] deals with AgOr65/Orco. The conditions noted are these: cited from earlier work.
The test system of assay [9] is DiOR1/Orco. The conditions noted are these: ref 48; * estimated visually from graph; cited from earlier work.
The test system of assay [10] is BmOR1/Orco. The conditions noted are these: ref 14; * estimated visually from graph; cited from earlier work.
Assay [11] has as its system ECB (Z) OR3/Orco. The conditions noted are these: cited from earlier work.
Assay [12] has as its system PxOR1/Orco. The conditions noted are these: ref 14; * estimated visually from graph; cited from earlier work.
Assay [13] deals with AgOr48/Orco. The conditions noted are these: cited from earlier work.
Assay [14] deals with BmOR3/Orco. The conditions noted are these: ref 14; * estimated visually from graph; cited from earlier work.
Where [15] appears, read: EIS dose response, ligand 1 aM to 100 μM.

Molecules are shown by their SMILES.

As for `CCCC/C=C\CCCCCCCCCCOC(C)=O` [Z11-16:Ac], in [1], the Sensitivity limit was 10^−7 M*.
As to `CC/C=C/CCCCCCCCCCO` [E11-14:OH], the Sensitivity limit in assay [2] is 10^−7 M*.
In the case of `CCc1ccc(OC)c(O)c1` [4-ethyl guaiacol], the ion channel activity entry in assay [3] is listed as “active ligand gated ion channel”.
Regarding `CCCCCC(C)=O` [2-heptanone], the EC50 (in general, the concentration that produces a half-maximal response) in [4] was 45.6 µM. For the same molecule, the Sensitivity limit in [4] (ref 14, * estimated visually from graph) is 10^−8-10^−6 M*.
Turning to `CCC/C=C/C=O` [E2-hexenal], the “sensor response to ligand” value in assay [5] is reported as “negligible responses”. Further, the “limit of detection (LOD)” value in assay [6] (setting [15]) turned out to be 10 fM. For the same molecule, the “Detection Range” value is listed as 10^−14 to 10^−6 M in assay [6] (Table 3) and 10^−16-10^−6 M in assay [7] (Table 3). In [7] (setting [15]), this molecule yielded a limit of detection of 0.1 fM.
Turning to `C=CCc1ccc(O)c(OC)c1` [eugenol], in assay [8] (log value), the “Ec50 (given as Log)” value is on record as “Log = −6.54”. In addition, the “Sensitivity limit (given as Log)” value in assay [8] (ref 43, * estimated visually from graph) is recorded as “Log = −7*”.
Take `CCCC/C=C/CCCCCCCCCC=O` [Ell-16:Ald]: the Sensitivity limit in [9] is 10^−7 M*.
In the case of `CCC/C=C\C=C\CCCCCCCCCO` [Bonnbykol], in [10], the Sensitivity limit was 10^−8-10^−6 M*.
In the case of `CC/C=C/CCCCCCCCCCOC(C)=O` [E11 pheromone], the Sensitivity limit in assay [11] is 10^−9 M.
With `CCCC/C=C\CCCCCCCCCC=O` [Z11-16:Ald], the Sensitivity limit in assay [12] was 10^−8-10^−6 M*.
On to `CCCCCCCCC1CCC(=O)O1` (stereo not shown) [g-dodecalactone], for which the “Ec50 (given as Log)” value in [13] (log value) is “Log = −7.01”. In addition, the “Sensitivity limit (given as Log)” value in assay [13] (ref 45, * estimated visually from graph) is on record as “Log = −8*”.
Turning to `CCC/C=C\C=C\CCCCCCCCC=O` [Bonnbykal], in [14], the Sensitivity limit is reported as 10^−8-10^−6 M*.

The values are drawn from patent publication US20210255184A1, “Biosensor Device and Methods” (The New Zealand Institute for Plant and Food Research …, priority 2018, published 2021).
